Here are results for 2 molecules from article PMC11887843 (Science Advances, 2024).

In assay [1] the target is T1, caspase-11 (Mus musculus, UniProt P70343).
T1 sequence (P70343 1-80 limits assumed): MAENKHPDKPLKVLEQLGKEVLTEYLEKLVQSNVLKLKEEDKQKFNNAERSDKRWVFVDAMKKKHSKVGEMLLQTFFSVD
Nature of the assay: microscale thermophoresis. In kind it is binding. (In general: MST reads how a fluorescent partner responds to local heating, with and without ligand.)

Assay [2] deals with T2, AcCARD (uncharacterized CARD-containing protein) (Amphilophus citrinellus, UniProt A0A3Q0SFM2).
T2 sequence (A0A3Q0SFM2 1-92): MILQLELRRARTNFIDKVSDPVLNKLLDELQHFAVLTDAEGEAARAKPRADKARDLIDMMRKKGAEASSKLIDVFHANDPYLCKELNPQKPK
In words: limited trypsin digestion and blue native PAGE in […] lysates. In kind it is cell-based.

Assay [3] deals with T1, caspase-11. In words: microscale thermophoresis. It counts as binding. This is another data set of the same source.

Where two headings read alike, the source gives them in different places.

On caspase-11 [1], `CCCCCCCCCCCCCCCC(=O)OC[C@@H](O)COP(=O)([O-])OCC[N+](C)(C)C` [16:0 LysoPC, 1-palmitoyl-2-hydroxy-sn-glycero-3-phosphocholine] registered a Kd of about 10 µM.

Turning to `CCCCCCCCCCCCCCCC(=O)OC[C@H](COP(=O)([O-])OCC[N+](C)(C)C)OC(=O)CCCC(=O)O` [PGPC], the “limited trypsin digestion and blue native PAGE in 293T lysates” value in assay [2] is “we found that AcCARD binds PGPC in both native PAGE and limited trypsin digestion assays”. On caspase-11 [3], the Kd is about 15 µM.

In general, Kd refers to the concentration at which binding is half-saturated. Higher therefore signals a looser complex.
